Converted amounts (≈) assume the structure as drawn.
Columns and labels:
[1] = system: MCF-7/VP-16 (MRP) cells; conditions: for ID50 MCF-7/VP-16 (MRP): MRP-overexpressing MCF-7/VP-16 cells, MTT, 72 hours; for RI (resistance index) MCF-7/VP-16 vs MCF-7: ratio of ID50 in MCF-7 and MCF-7/VP-16 cells
[2] = system: KBVI (MDR) cells; assay: MTT cytotoxicity assay, multi-drug-resistant KBV1 cells; conditions: for ID50 KBVI (MDR): multi-drug-resistant KBV1 cells overexpressing MDR1 (P-gp), MTT, 72 hours; for RI (resistance index) KBVI vs KB: ratio of ID50 in KB and KBVI cells
[3] = system: KB cells; assay: MTT cytotoxicity assay, sensitive KB cells; conditions: sensitive human carcinoma KB cells, 72 hours
[4] = system: MCF-7 cells; assay: MTT cytotoxicity assay, wild-type MCF-7 cells; conditions: for ID50 MCF-7: sensitive human breast carcinoma MCF-7 cells, MTT, 72 hours; for cytotoxicity in sensitive MCF-7 cells, in words: compared with DOX
[5] = system: MCF-7/DOX (MDR) cells; assay: MTT cytotoxicity assay, MDR MCF-7/DOX cells; conditions: for ID50 MCF-7/DOX (MDR): MDR-overexpressing MCF-7/DOX cells, MTT, 72 hours; for RI (resistance index) MCF-7/DOX vs MCF-7: ratio of ID50 in MCF-7 and MCF-7/DOX cells
[6] = system: prion disease; conditions: cited from earlier work
[7] = system: amyloidosis; conditions: as a result of amyloid resorption; cited from earlier work
[8] = system: amyloid fibrils; conditions: cited from earlier work
[9] = system: amyloid enhancing factor; conditions: preincubation of the amyloid enhancing factor with IDOX; cited from earlier work

Molecule	ID50 MCF-7/VP-16 (MRP) [1]	RI (resistance index) MCF-7/VP-16 vs MCF-7 [1]	ID50 KBVI (MDR) [2]	ID50 KB [3]	ID50 MCF-7 [4]	ID50 MCF-7/DOX (MDR) [5]	also measured
6′-fluoro-doxorubicin [WP 743]	2.3 µg/mL	11.5	41 µg/mL	0.64 µg/mL	0.2 µg/mL	>10 µg/mL	RI (resistance index) KBVI vs KB [2]: 64; RI (resistance index) MCF-7/DOX vs MCF-7 [5]: 50
COc1cccc2c1C(=O)c1c(O)c3c(c(O)c1C2=O)CC(O)(C(=O)CO)CC3OC1CC(O)C(F)(F)C(C)O1 (centres unmarked) [WP 600, 3′-deamino-4′-deoxy-4′,4′-difluoro-3′-hydroxy-doxorubicin]			16.9 ± 2.3 µg/mL (≈ 29.9 µM)				
COc1cccc2c1C(=O)c1c(O)c3c(c(O)c1C2=O)C[C@@](O)(C(=O)CO)C[C@@H]3O[C@H]1C[C@H](N)[C@H](O)[C@H](C)O1 [DOX, doxorubicin, reference compound]	6.2 µg/mL (≈ 11.4 µM)	16.3	>100 µg/mL	4.1 ± 0.3 µg/mL (≈ 7.54 µM)	0.38 µg/mL (≈ 0.699 µM)	>100 µg/mL	cytotoxicity against MDR KB-V1 cells, in words [2]: inactive; RI fold higher than that of WP 715 and WP 722 ([5]; MCF-7/DOX cells): 180 fold; RI (resistance index) MCF-7/DOX vs MCF-7 [5]: >263
COc1cccc2c1C(=O)c1c(O)c3c(c(O)c1C2=O)CC(O)(C(=O)CO)CC3OC1CC(O)C(F)C(C)O1 (centres unmarked) [WP 563, 3′-Deamino-4′-fluoro-3′-hydroxydoxorubicin]			2.74 ± 2.9 µg/mL (≈ 5.01 µM)				
COc1cccc2c1C(=O)c1c(O)c3c(c(O)c1C2=O)CC(O)(C(=O)CO)CC3OC1CC(N)C(I)C(C)O1 (centres unmarked) [IDOX, 4′-iodo-4′-deoxydoxorubicin]							onset of disease ([6]; Syrian-hamster prion model): delayed onset of the disease; survival time ([6]; Syrian-hamster prion model): prolonged; accumulation of amyloid fibrils in brain ([6]; neuropathological examination, versus untreated controls): delay in the accumulation of amyloid fibrils; clinical outcome in patients with amyloidosis [7]: substantial clinical improvement; binding to amyloid fibrils [8]: binds strongly; formation of amyloid deposits [9]: significantly reduces formation of amyloid deposits
COc1cccc2c1C(=O)c1c(O)c3c(c(O)c1C2=O)CC(O)(C(=O)CO)CC3OC1CC(N)C(F)C(C)O1 (centres unmarked) [WP 722, 4′-deoxy-4′-fluoro-doxorubicin]	4.2 ± 5.0 µg/mL (≈ 7.7 µM)	3.23	3.3 ± 0.4 µg/mL (≈ 6.05 µM)	2.1 ± 2.5 µg/mL (≈ 3.85 µM)	1.3 ± 1.6 µg/mL (≈ 2.38 µM)	1.9 µg/mL (≈ 3.48 µM)	cytotoxicity in MCF-7/VP-16 cells, in words ([1]; compared with DOX): significant increase in cytotoxicity; RI (resistance index) KBVI vs KB [2]: 1.57; cytotoxicity in sensitive MCF-7 cells, in words [4]: less potent than DOX; cytotoxicity against resistant MCF-7/DOX cells, in words [5]: highly cytotoxic against resistant cells
COc1cccc2c1C(=O)c1c(O)c3c(c(O)c1C2=O)CC(O)(C(C)=O)CC3OC1CC(N)C(F)C(C)O1.Cl (centres unmarked) [WP 715, 4′-deoxy-4′-fluoro-daunorubicin hydrochloride]			4.1 ± 0.6 µg/mL	3.15 ± 0.9 µg/mL	1.5 ± 1.4 µg/mL	2.2 µg/mL	cytotoxicity in sensitive MCF-7 cells, in words [4]: less potent than DOX; cytotoxicity against resistant MCF-7/DOX cells, in words [5]: highly cytotoxic against resistant cells

Reference: patent US6355784B1, “Methods and compositions for the manufacture of halogenated anthracyclines with increased antitumor activity, other anthracyclines, halogenated sugars, and glycosyl donors” (priority 1998, dated 2002)
